According to US12540166B2, “BNIP3 peptides for treatment of reperfusion injury” (Bimyo GmbH, priority 2019, dated 2026):

Tests used:
[1] = test system: infarct size in STEMI patients; details: cited from earlier work; for infarct size / effect in patients: clinical trials, administered prior to PPCI
I/R injury = details: in vivo; cited from earlier work
[2] = test system: cancer therapy cardiotoxicity; details: in vivo; cited from earlier work
[3] = test system: myocardial infarction model in mice; assay: In vivo myocardial infarction (ischemia/reperfusion) model in mice, infarct size; details: 24 h reperfusion; for effect on infarct size (in words): given 5 min before reperfusion
Procedure: (§1) In vivo myocardial infarction model in mice. […] Sodium chloride injection (50 μl) served as control treatment.
Infarct size measurement. For analysis of infarct size, mice were euthanized after 24 hours of reperfusion; hearts were excised and perfused with PBS over 5 min. After perfusion, the LCA was re-ligated in the same location as explicated before. Evans blue dye (1 ml of a 1% solution) was injected into the aorta and coronary arteries for delineation of the ischemic AAR from the non-ischemic zone. The tissue was wrapped in a clear food wrap and stored for one hour in a −20° C. freezer. The heart was then serially sectioned perpendicularly to the long axis in 1 mm slices, and each slice was weighed. The sections were incubated in 1% TTC for 5 min at 37° C. for demarcation of the viable and non-viable myocardium within the risk zone. Infarction, AAR, and non-ischemic left ventricle were assessed with computer-assisted planimetry by an observer blinded to sample identity. The size of the myocardial infarction was expressed as a percentage of the AAR.

[4] = test system: transient middle cerebral artery occlusion (tMCAO); assay: Mouse model of focal cerebral reperfusion (tMCAO), brain infarct size; type: in vivo; details: 24 h of reperfusion after 30-min tMCAO, vs vehicle
Procedure: We subjected mice to 24 h of reperfusion after a 30-min transient middle cerebral artery occlusion (tMCAO). BNIP3-8B treatment immediately post tMCAO markedly reduces the infarct size by 52% (FIG. 12).

[5] = test system: isolated adult cardiomyocytes; details: survival after 24 h
Procedure: FIG. 7. A Uptake of fluorescence labelled TAT-BNIP3-8B in different organs after 5 min of reperfusion post vessel occlusion. TAT-BNIP3-8B was given 5 min before starting reperfusion. B Survival of isolated adult cardiomyocytes treated with TAT-BNIP3-8B and TAT-BNIP3-8C control peptide after 24 h.

[6] = test system: myocardial infarction model in swine; assay: In vivo myocardial infarction model in pigs, infarct size; details: 60 min LAD occlusion, 4 h of reperfusion, IV 5 min before reperfusion, vs vehicle
Text: In vivo myocardial infarction model in pigs. Following induction of anesthesia, a small incision was made over the femoral artery and vein; the vessels were isolated. A small opening was made in the artery and a sheath was introduced. In addition, a sheath was placed in the femoral vein or other appropriate vein to allow for emergency drug administration if necessary. A blood sample was taken prior to administration of heparin and was used to establish a baseline Activated Clotting Time (ACT) which was recorded. Subsequently, as directed by the surgeon, heparin (250 to 350 IU/kg) was administered as needed to achieve and maintain an ACT that is two times the level of the baseline ACT. Following the initial bolus of heparin ACT was recorded again and monitored at least every 60 minutes thereafter, until completion of surgery.
An appropriate guide catheter was advanced into the ostium of the left anterior descending artery (LAD) using visual guidance provided by fluoroscopy. Non-ionic contrast was used for all procedures. A balloon catheter was introduced by advancing it through the guide catheter to the left anterior descending (LAD) coronary artery. The balloon was advanced into the coronary arteries through a guide catheter to a suitable place above the 1st diagonal branch of the LAD. […] Incidence supportive drugs and defibrillation were recorded in the study record. […]

[7] = test system: BNIP3 and BAX interaction with mitochondria; assay: Mechanistic read-outs in the area at risk of mouse hearts after vessel occlusion and reperfusion; type: in vivo, mice; details: for BNIP3 (and BAX) translocation to / interaction with mitochondria: after 10 min of reperfusion, peptide 5 min before reperfusion
Procedure: as §1
Immunoblotting. Tissue and human CM cells were lysed in a RIPS buffer (50 mM Tris-HCl, 150 mM NaCl, 0.5 mM EDTA, 1% NP-40 and protease- and phosphatase inhibitor, pH 7.4). Isolated mitochondria were lysed in a Mito-lyse buffer (200 mM sucrose, 10 mM HEPES, 1 mM EGTA, 1% Triton-X100 and protease- and phosphatase inhibitor, pH 7.4). The lysates were cleared by centrifugation (20.000×g, 15 min, 4° C.). Protein concentrations in supernatant were measured using DC Protein Assay (Bio-Rad). Samples were diluted into 4×LDS sample buffer and 10× Reducing Agent (Invitrogen) and were prepared for SDS-PAGE by heating to 95° C. for 5 min. Equivalent amounts of protein were separated using 4-12% Bis-Tris Gels (Invitrogen), transferred on to nitrocellulose and immunoblotted with primary antibodies. The used secondary antibodies were horseradish peroxidise conjugated goat anti-mouse or anti-rabbit IgG (Invitrogen). Immunoblotting was detected by ECL (Thermo Scientific) and imaged on an Imager 600 (Amersham).
Immunoprecipitation. Immunoprecipitation were performed using protein G-coupled Dynabeads (Invitrogen). 500 μg lysed proteins were incubated with 2 μg antibody over night at 4° C. with shaking in PBS buffer containing 1 mM DTT, 0.005% Brij35 and protease-phosphatase inhibitors. Next day 20 μl Dynabeads were added and the solution was incubated again for 1 h. The precipitated immune complex was washed 2 times and then resuspended in eluation buffer containing LDS-Sample Buffer (1:4) und Reducing Agent (1:10) (Invitrogen) in PBS and heated for 5 min at 95° C. After removal of the Dynabeads the Eluate were analysed via immunoblotting.
Caspase-3 activity was measured using the Caspase 3 Assay Kit from Abcam (#ab39401). Murine hearts were harvested after 30 min ischemia and 4 h reperfusion, area at risk was isolated, lysed in containing buffer and the assay was performed according to manufacturer's instructions.
(§2) Swelling Assay. Mitochondrial swelling was measured by light scattering at 540 nm in a microplate absorbance reader FLUOstar Omega (BMG Labtech) at RT. The final assay volume was 200 μl, containing mitochondria at 0.5 mg/ml in buffer containing 250 mM sucrose, 10 mM HEPES, […], pH 7.4.

HL-1 cells = assay: Doxorubicin-induced mitochondrial swelling in HL-1 cells (OD540); type: cell-based; details: 5 μM Doxorubicin given simultaneously, 30 min
Procedure: HL-1 cells were cultured in Claycomb medium as per manufacturer's protocol. The cells were treated with 5 μM Doxorubicin and 2 nmol TAT-BNIP3-8B for 30 min.
as §2

[8] = after reperfusion post vessel occlusion, peptide given 5 min before reperfusion
Procedure: In vivo myocardial infarction model in mice. Wild-type and Bnip3 deficient (Bnip3^−/−) mice were anesthetized by i.p. injection of ketamine (100 mg/kg) and xylazin (10 mg/kg) and intubated. Mechanical ventilation parameters were set to a tidal volume of 2.1 to 2.5 ml and a respiratory rate of 140 breaths per min using a mouse mini-ventilator. Deep anaesthesia was maintained by adding 2 vol % isoflurane to the ventilation gas. The chest was opened through a lateral thoracotomy (1 cm left lateral incision between the 3rd and 4th ribs). A 6-0 prolene suture was placed around the left coronary artery (LCA) and a piece of soft silicon tubing placed over the artery. Coronary occlusion was achieved by tightening and tying the suture. After 30 min of occlusion, the silicon tubing was removed and the suture left in place. For longer reperfusion times the chest were closed using 4-0 prolene. 2, 6 and 9 nmol (in 50 μl 0.9% sodium chloride) BNIP3 were injected into the left ventricular cavity 5 min before vessel occlusion. Peptides with 20 amino acids (2 nmol/50 μl) and peptides with 8 amino acids (8 nmol/50 μl) in NaCl were injected 5 min before reperfusion. Sodium chloride injection (50 μl) served as control treatment.
Peptides. […] For uptake and binding studies, peptides were labelled with a fluorophore.

[9] = 37° C.
Procedure: FIG. 8. TAT-BNIP3-8B pharmacokinetics. Fluorescence labelled BNIP3-8B was incubated in human serum (A), plasma (B), and whole blood (C) at 37° C. for indicated time durations and monitored by Western blot. Proteinase K treatment served as control.

[10] = test system: human ventricular cardiomyocytes derived from human induced pluripotent stem cells (humanCM); assay: In vitro reoxygenation after hypoxia in humanCM; type: cell-based; details: 2 h of reoxygenation after hypoxia; for mitochondrial inner membrane depolarization / loss of mitochondrial inner membrane potential: JC-1
Procedure: Cell culture. Human iPSC-derived ventricular cardiomyocytes (humanCM) were obtained from (axol) and were cultivated according to the manufacture's specification.
To simulate vessel occlusion, cells were incubated in buffer (113 mM NaCl, 4.7 mM KCl, 12 mM HEPES, 1.2 mM MgSO4, 30 mM taurine, 1.3 mM CaCl2), pH 7.4) under 1% O2, 37° C. Reoxygenation was performed in buffer supplemented with 5.5 mM glucose under 21% O2, 37° C.
JC-1 Assay. To analyze mitochondrial inner membrane potential in humanCM cells were stained with 5′,6,6′-tetrachloro-1,1′,3,3′-tetraethylbenzimidazolylcarbocyanin Iodid (JC-1). Cells were incubated with 6 μM JC-1 in media at 37° C. for 30 min. After washing cells with PBS buffer at 37° C. they were fixed with 4% PFA for 15 min at room temperature. DAPI staining was performed and cells were analysed using EVOS FL (life Technologies).

BNIP3 = BNIP3 (Mus musculus, UniProt O55003); assay: BNIP3/TAT-BNIP3-8B overlay assay and docking simulation; type: binding; details: data not shown
Procedure: Docking Simulation. Experiments were performed using Autodock Vina^52 and HADDOCK^53. The structure of BAX (pdb-ID: 4S0O) was taken from the Protein Data Bank, whereas the structure of BNIP3 and peptide BNIP3-8B were modelled using Modeller9.15^47. The template structures correspond to PDB codes 2k7w and 2ka1. The created model was energy minimized using NAMD2.9^54 and the CHARMM36 force field.

For `CC(C)CCC[C@@H](C)[C@H]1CC[C@H]2[C@@H]3CC/C(=N\O)[C@](C)(CCCO)[C@H]3CC[C@]12C` [TRO40303], the “infarct size / effect in patients” value [1] is given as “failed to reduce infarct size”, the “adverse events in patients” value ([1]; compared with the placebo arm) is given as “more adverse events” and the “infarct size in animal / pre-clinical studies” value (I/R injury) is given as “reduce infarct size”.

For `COc1ccccc1OCCNCC(O)COc1cccc2[nH]c3ccccc3c12` (stereo not shown) [carvedilol], the “prevention of cardiotoxicity / cardiomyopathy in cancer patients” value [2] is listed as “failed to show a benefit”.

In the case of “TAT-BNIP3-8B: TAT PTD covalently attached to WVELHFFN (BNIP3 amino acids 13-20 with Ser-19 to Phe-19 substitution, SEQ ID NO: 8)”, the “reduction of infarct size” value ([3]; wild-type mice, peptide into left ventricle 5 min before reperfusion, vs vehicle) is reported as “up to 40%”, the “reduction of cerebral infarct size” value [4] is reported as 52% and the toxicity in cardiomyocytes [5] is reported as “no signs of overt toxicity”. For the same molecule, the “reduction of myocardial infarct size” value [6] was 56%, the “interaction with endogenous BNIP3 / BAX (co-immunoprecipitation)” value ([7]; 5 min of reperfusion, fluorescence-labelled peptide) was “endogenous BNIP3 and BAX mono, homo- and heterodimers co-immunoprecipitated” and the “down-stream cell death machinery (mitochondrial swelling, BAX activation, cytochrome c release, caspase-3 activity)” value ([7]; 10 min to 4 h of reperfusion) was “inhibition of the down-stream cell death machinery”. The “BNIP3 (and BAX) translocation to / interaction with mitochondria” value (“BNIP3 … to / interaction with mitochondria” below) [7] was “prevents BNIP3 and BAX translocation to the mitochondria”, the BNIP3/BAX oligomerization ([7]; cytosol of area at risk, 10 minutes reperfusion, blue native-PAGE) was “strongly inhibited” and the “mitochondrial swelling (OD540)” value (HL-1 cells) was “prevents mitochondrial swelling”. The “uptake / tissue distribution” value [8] was “taken up by the heart, spleen and liver and is present in the plasma”, the “half-life in human serum, plasma and whole blood” value [9] was “enables its in vivo inhibitory capacity” and the “apoptotic and necrotic cell death” value [10] was “markedly inhibits necrotic and apoptotic cell death”. The “mitochondrial inner membrane depolarization / loss of mitochondrial inner membrane potential” value [10] was “markedly inhibits” and the “binding to BNIP3” value (BNIP3) was “binds to BNIP3”.

With “TAT-BNIP3-8C: control peptide: BNIP3-8B with Phe-18 to Ala-18 and His-17 to Ala-17 substitutions (WVELAASN)” the “effect on infarct size (in words)” value ([3]; wild-type mice) was “does not appreciably affect the infarct size”, the “BNIP3 … to / interaction with mitochondria” value [7] was “does not” and the “apoptotic and necrotic cell death” value [10] was “not effective”. The “mitochondrial inner membrane depolarization / loss of mitochondrial inner membrane potential” value [10] was “not effective”.

For “TAT-BNIP3-20C: control peptide: TAT PTD attached to amino acids 42-61 of BNIP3 (LDAQHESGRSSSKSSHCDSP)”, the “effect on infarct size (in words)” value ([3]; wild-type mice) was “not effective”, the “BNIP3 … to / interaction with mitochondria” value [7] was “does not” and the “apoptotic and necrotic cell death” value [10] was “not effective”. The “translocation of human BNIP3 to mitochondria” value [10] was “not effective” and the “mitochondrial inner membrane depolarization / loss of mitochondrial inner membrane potential” value [10] was “not effective”.

In the case of elamipretide, the “infarct size / effect in patients” value [1] is listed as “failed to reduce infarct size” and the “infarct size in animal / pre-clinical studies” value (I/R injury) is listed as “reduce infarct size”.

B1: BNIP3: BNIP3 protein restituted to BNIP3 deficient mice (TAT-BNIP3 doses, FIG. 1C) (protein)
chain: MSQSGEENLQGSWVELHFSNGNGSSVPASVSIYNGDMEKILLDAQHESGRSSSKSSHCDSPPRSQTPQDTNRAEIDSHSFGEKNSTLSEEDYIERRREVESILKKNSDWIWDWSSRPENIPPKEFLFKHPKRTATLSMRNTSVMKKGGIFSADFLKVFLPSLLLSHLLAIGLGIYIGRRLTTSTSTF
For B1, the “infarct size after restitution of BNIP3” value ([3]; BNIP3 deficient (Bnip3−/−) mice) was “infarct sizes comparable to wild-type mice in a dose-dependent manner” and the “mitochondrial BAX translocation after addition of BNIP3” value ([7]; BNIP3 deficient mouse hearts, early phase of reperfusion) was “restored the BAX translocation”.
